Results as given in patent US4880783A, “Use of adenosine, hypoxanthine and ribose-containing solution for improved protection of the heart during surgery” (University of Virginia Alumnia Patents Foundation, priority 1988, dated 1989).

How the values were obtained:
[1] = system: myocardial ATP (isolated perfused rat heart); assay: Myocardial ATP in Langendorff isolated perfused rat heart before, during and after 10 min ischemia; conditions: 100 μM; for ATP, 10' Ischemia / ATP, 15' RP / ATP, 30' RP / ATP, 60' RP / ATP, Equilibration: 37° C., N ≥ 5; for ATP, 15' RP: 15' reperfusion; for ATP, 30' RP: 30' reperfusion; for ATP, 60' RP: 60' reperfusion; for ATP, Equilibration: pre-ischemic equilibration; for nucleotide pools (ATP) during ischemia and/or post-ischemic reperfusion: in words, isolated rat heart
[2] = system: isolated perfused rat heart; assay: Recovery of left ventricular developed pressure in isolated perfused rat heart after 10 min total ischemia; set-up: % of Control Developed Pressure, 15' RP / % of Control Developed Pressure, 30' RP / % of Control Developed Pressure, 60' RP: concentration or dose not given beside the values; conditions: for % of Control Developed Pressure, 15' RP: 15' reperfusion; for % of Control Developed Pressure, 15' RP / % of Control Developed Pressure, 30' RP / % of Control Developed Pressure, 60' RP: 37° C., N ≥ 5; for % of Control Developed Pressure, 30' RP: 30' reperfusion; for % of Control Developed Pressure, 60' RP: 60' reperfusion; for contractile function of the isolated perfused rat heart: in words, after 10 minutes of total ischemia
Description: This hypothesis was also tested using the aforementioned isolated rat heart model. The effects of adenosine and hypoxanthine on the recovery of cardiac contractile function was assessed by the determination of left ventricular developed pressure during the post-ischemic reperfusion phase with the use of an intra-ventricular saline filled balloon.

Row | SMILES | ATP, 10' Ischemia [1] | ATP, 15' RP [1] | ATP, 30' RP [1] | ATP, 60' RP [1] | ATP, Equilibration [1] | nucleotide pools (ATP) during ischemia and/or post-ischemic reperfusion [1] | % of Control Developed Pressure, 15' RP [2] | % of Control Developed Pressure, 30' RP [2] | % of Control Developed Pressure, 60' RP [2] | contractile function of the isolated perfused rat heart [2]
1 | O=c1[nH]cnc2nc[nH]c12 [Hypoxanthine, hypoxanthine] | 1.4 ± .2 μmoles/g wet weight | 2.7 ± .2 μmoles/g wet weight | 2.7 ± .1 μmoles/g wet weight | 2.3 ± .1 μmoles/g wet weight | 3.4 ± .2 μmoles/g wet weight | able to enhance nucleotide pools (ATP) during ischemia and/or during the post-ischemic reperfusion period | 84 ± 5% | 88 ± 2% | 87 ± 3% | capable of restoring the contractile function
2 | Nc1ncnc2c1ncn2[C@@H]1O[C@H](CO)[C@@H](O)[C@H]1O [Adenosine, adenosine] | 1.7 ± 0.1 μmoles/g wet weight | 2.9 ± .08 μmoles/g wet weight | 2.7 ± .08 μmoles/g wet weight | 2.7 ± .06 μmoles/g wet weight | 3.9 ± 0.4 μmoles/g wet weight | able to enhance nucleotide pools (ATP) during ischemia and/or during the post-ischemic reperfusion period | 86 ± 3% | 96 ± 3% | 95 ± 3% | capable of restoring the contractile function
